Measured values reported in PMC4961418, “A Selective Irreversible Inhibitor of Furin Does Not Prevent Pseudomonas Aeruginosa Exotoxin A-Induced Airway Epithelial Cytotoxicity” (PLoS ONE, 2016).
Side chains are listed from the residue outwards. Peptide text beside a SMILES is read from it. * marks the point of attachment. Biotin = O=C1N[C@H]2[C@H](CS[C@H]2CCCCC(=O)*)N1; X1 = N=C(N)NCCCC(N*)P(=O)(Oc1ccccc1)Oc1ccccc1; Palmitoyl = CCCCCCCCCCCCCCCC(=O)*; Ahx = NCCCCCC(=O)O

What was measured:
[1] = tested on: chymotrypsin; assay: Fluorogenic protease activity assay, chymotrypsin; assay type: biochemical, human; conditions: 10 μM inhibitor, Suc-Ala-Ala-Pro-Phe-NH2Mec 50 μM, N = 3
Source text: (§1) Recombinant human enzymes were sourced as follows: furin and matriptase (R&D Systems); prostasin (Sino Biological); trypsin and chymotrypsin (Sigma-Aldrich); factor Xa and neutrophil elastase (Merck Millipore) and proteinase-3 and cathepsin G (Elastin Products, Missouri). Fluorogenic substrates were sourced as follows: p-Glu-Arg-Thr-Lys-Arg-NH2Mec and Boc-Gln-Ala-Arg-NH2Mec (R&D Systems); Boc-Ile-Glu-Gly-Arg-NH2Mec (Bachem); Z-Gly-Gly-Arg-NH2Mec, MeOSuc-Ala-Ala-Pro-Val-NH2Mec and Suc-Ala-Ala-Pro-Phe-NH2Mec (Sigma-Aldrich). All chemicals and reagents for the synthesis of QUB-F1 were supplied by Sigma-Aldrich unless otherwise indicated. Fmoc-Lys(Boc)-SASRIN resin was sourced from Bachem. Fmoc-protected amino acids and HCTU were supplied by Merck Millipore.
(§2) Recombinant protease activities were assessed using the cognate fluorogenic substrates (final concentration 50 μM) as follows: trypsin (Z-Gly-Gly-Arg-NH2Mec), prostasin and matriptase (Boc-Gln-Ala-Arg-NH2Mec), factor Xa (Boc-Ile-Glu-Gly-Arg-NH2Mec), neutrophil elastase and proteinase 3 (MeO-Suc-Ala-Ala-Pro-Val-NH2Mec), chymotrypsin and cathepsin G (Suc-Ala-Ala-Pro-Phe-NH2Mec). The rate of substrate hydrolysis in the presence or absence of furin inhibitors was assessed by continuous recording at λex 360 nm, λem 480 nm, over a period of 60 minutes using a FLUOstar Optima microplate reader (BMG Labtech). […]

[2] = target: T1, matriptase (Homo sapiens, UniProt Q9Y5Y6); assay: Fluorogenic protease activity assay, matriptase; assay type: biochemical; conditions: 10 μM inhibitor, Boc-Gln-Ala-Arg-NH2Mec 50 μM, N = 3
T1 construct: purchased R&D Systems
T1 sequence (Q9Y5Y6 1-855): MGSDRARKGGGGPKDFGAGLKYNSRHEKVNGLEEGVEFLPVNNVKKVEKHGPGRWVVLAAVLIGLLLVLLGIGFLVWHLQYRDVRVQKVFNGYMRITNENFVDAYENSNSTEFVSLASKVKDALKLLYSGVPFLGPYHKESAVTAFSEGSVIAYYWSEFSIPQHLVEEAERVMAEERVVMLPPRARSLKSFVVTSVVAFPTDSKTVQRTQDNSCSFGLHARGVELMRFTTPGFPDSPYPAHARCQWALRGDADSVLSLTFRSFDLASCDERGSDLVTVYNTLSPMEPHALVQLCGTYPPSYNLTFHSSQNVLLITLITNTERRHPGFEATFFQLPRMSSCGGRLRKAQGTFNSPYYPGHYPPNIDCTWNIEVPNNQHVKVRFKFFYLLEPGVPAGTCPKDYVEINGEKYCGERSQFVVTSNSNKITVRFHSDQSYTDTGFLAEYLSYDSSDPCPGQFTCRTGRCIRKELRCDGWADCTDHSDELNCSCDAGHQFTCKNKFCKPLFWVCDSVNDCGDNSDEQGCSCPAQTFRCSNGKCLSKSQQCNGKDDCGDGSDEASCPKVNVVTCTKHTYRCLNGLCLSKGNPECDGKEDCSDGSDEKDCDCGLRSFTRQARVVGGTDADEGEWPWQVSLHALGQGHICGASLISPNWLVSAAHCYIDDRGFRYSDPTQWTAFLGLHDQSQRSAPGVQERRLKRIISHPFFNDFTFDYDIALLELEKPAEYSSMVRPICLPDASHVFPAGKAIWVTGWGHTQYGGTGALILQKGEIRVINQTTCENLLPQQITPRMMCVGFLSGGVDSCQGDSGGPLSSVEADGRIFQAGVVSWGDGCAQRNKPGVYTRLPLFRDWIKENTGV
Source text: as §1, §2

[3] = target: T2, factor Xa (Homo sapiens, UniProt P00742); assay: Fluorogenic protease activity assay, factor Xa; assay type: biochemical; conditions: 10 μM inhibitor, Boc-Ile-Glu-Gly-Arg-NH2Mec 50 μM, N = 3
T2 construct: factor Xa and neutrophil elastase (Merck Millipore); purchased Merck Millipore
T2 sequence (P00742 235-488 limits assumed): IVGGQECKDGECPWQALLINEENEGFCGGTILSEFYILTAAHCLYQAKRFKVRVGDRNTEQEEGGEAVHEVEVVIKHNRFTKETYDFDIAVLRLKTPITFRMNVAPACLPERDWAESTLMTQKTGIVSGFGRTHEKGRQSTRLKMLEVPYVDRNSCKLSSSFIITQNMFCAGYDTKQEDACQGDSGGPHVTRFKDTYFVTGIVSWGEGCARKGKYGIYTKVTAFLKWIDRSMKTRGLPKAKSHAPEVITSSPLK
T2 sequence (P00742 41-179 partner limits assumed): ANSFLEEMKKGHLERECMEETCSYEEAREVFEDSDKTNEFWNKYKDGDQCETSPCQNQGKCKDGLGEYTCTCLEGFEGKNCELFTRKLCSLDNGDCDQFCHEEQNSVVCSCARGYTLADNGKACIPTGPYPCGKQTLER
Source text: as §1, §2

[4] = target: cathepsin B (Homo sapiens, UniProt P07858); assay: Cathepsin B activity assay; assay type: biochemical; conditions: up to and including a concentration of 10 μM, N = 3
Protocol: Fig 3 Comparison of QUB-F1 and furin I versus cathepsin B. Cathepsin B activity was assessed in the presence or absence of various concentrations of QUB-F1 or furin I (N = 3). Data represent mean ± s.e.m.

[5] = target: T3, prostasin (Homo sapiens, UniProt Q16651); assay: Fluorogenic protease activity assay, prostasin; assay type: biochemical; conditions: 10 μM inhibitor, Boc-Gln-Ala-Arg-NH2Mec 50 μM, N = 3
T3 construct: purchased Sino Biological
T3 sequence (Q16651 33-343): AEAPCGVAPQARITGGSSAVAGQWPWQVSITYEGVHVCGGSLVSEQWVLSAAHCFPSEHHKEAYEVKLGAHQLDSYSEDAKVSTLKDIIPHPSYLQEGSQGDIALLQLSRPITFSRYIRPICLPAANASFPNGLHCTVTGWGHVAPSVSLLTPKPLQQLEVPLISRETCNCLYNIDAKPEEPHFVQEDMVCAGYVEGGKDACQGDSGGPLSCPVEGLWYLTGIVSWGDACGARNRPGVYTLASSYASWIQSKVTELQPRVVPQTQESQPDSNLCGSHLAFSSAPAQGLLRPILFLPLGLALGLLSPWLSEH
Source text: as §1, §2

[6] = tested on: cell surface furin-like activity (CuFi-1 epithelial cells); assay: Epithelial cell surface furin-like activity assay; assay type: cell-based, human; conditions: 10 μM inhibitor, pERTKR substrate 50 μM applied to cell cultures
Protocol: The CuFi-1 cell line was derived from human airway epithelium of a CF patient (F508del/F508del) transformed with a reverse transcriptase component of telomerase, hTERT and human papillomavirus type 16 E6 and E7 genes. Cells were grown as submerged cultures using bronchial epithelial growth medium (BEBM including a supplement pack) containing: epidermal growth factor, hydrocortisone, bovine pituitary extract, transferrin, bovine insulin, triiodothyronine, epinephrine, retinoic acid, penicillin-streptomycin (0.025 μg/ml), gentamycin ([…]) and amphotericin (25 μg/ml).
Cell culture media was removed from CuFi-1 epithelial cells grown in 96 well microtitre plates (Thermo Scientific Sterilin; clear bottom, black walled) and replaced with PBS /+ inhibitor compounds (furin I or QUB-F1). The furin fluorogenic substrate (pERTKR -NH2Mec) was then applied directly to the cell cultures to give a final concentration of 50 μM. Cell surface proteolytic activity was measured by monitoring the formation of–NH2Mec at λex 360 nm and λem 480 nm using a 5 mm orbital scan every 60 s over a 1 h period (FLUOstar Optima microplate reader; BMG Labtech).
Fig 4 Effect of furin inhibitors on PEA-induced epithelial cell toxicity. (A) Cell toxicity (%) induced by 2 μg/ml PEA (24 h) was measured in the presence or absence of furin I or QUB-F1. Data represent mean ± s.e.m. *P<0.05. […]

CCCCCCCCCCCCCCCC(=O)N[C@@H](CCCCNC(=O)CCCCCNC(=O)CCCC[C@@H]1SC[C@@H]2NC(=O)N[C@@H]21)C(=O)N[C@@H](CCCNC(=N)N)C(=O)N[C@H](C(=O)N[C@@H](CCCCN)C(=O)NC(CCCNC(=N)N)P(=O)(Oc1ccccc1)Oc1ccccc1)C(C)C (stereo partly drawn) [QUB-F1, N^α-Pal-N^ω-(Biotinyl-Ahx)-Lys-RVKR^P(OPh)2] (Palmitoyl-K([Ahx-Biotin])RVK-X1)
inhibition of chymotrypsin [1]: Neither compound was found to inhibit | inhibition of matriptase [2]: did not | inhibition of factor Xa [3]: did not | inhibitory action on cathepsin B [4]: no inhibitory action | inhibition of prostasin [5]: did not | inhibition of cell surface furin-like activity [6]: inhibited cell surface furin-like activity to the same extent as furin I
